{
  "source": "paper PMC12571071",
  "about": "“Preventing neuropathy and improving anticancer chemotherapy with a carbazole-based compound” (Science Advances, 2025)",
  "key": {"HeLa cells [1]": {"tested_on": "HeLa cells", "assay": "1H NMR metabolomic profiling of HeLa cells", "assay_type": "cell-based, human", "conditions": "12 μM, 2 hours", "experimental": "HeLa cells (1 × 10^6) were seeded in Ø100-mm cell culture dishes and allowed to adhere for 48 hours. Cells were then treated with DMSO or 12 μM Carba1 for 2 hours at 37°C and 5% CO2. After treatment, the medium was removed, and cells were washed with PBS at R.T. before quenching with methanol at −20°C and scrapping ([70]). Dried extracts were obtained by evaporating the solvent under gentle N2 flow and stored at −80°C until analysis. For NMR, extracts were resuspended in 620 μl of 100% D2O phosphate buffer (pH 7.4), and 550 μl was transferred into 5-mm NMR tubes. Untargeted NMR analysis was performed at 27°C on a Bruker Avance IVDr spectrometer (600 MHz, ^1H resonance) with a conventional Broadband Inverse (BBI) probe. ^1H metabolic profiles were acquired using a NOESY experiment with water presaturation (Bruker pulse program noesygppr1d) and a spectral width of 11,904.792 Hz. Experimental parameters included a 10-ms mixing time, 2-s acquisition time, 3-s recycle delay, and 512 scans. The 90°s pulse length was calibrated at ~11.09 μs per sample after automatic shimming and tuning. NMR free induction decays were multiplied by an exponential function corresponding to a line broadening of 0.3 Hz before Fourier transform. […]"}, "HeLa cells [2]": {"tested_on": "HeLa cells", "assay": "NAD(P)H autofluorescence imaging in live HeLa cells", "assay_type": "cell-based, human", "conditions": "12 μM, 24 hours", "experimental": "HeLa cells were seeded in four-chamber Labtek plates at 10,000 cells per well. After 48 hours, cells were preincubated with or without 12 μM Carba1 for 2 hours before addition of FK866 (5 and 10 nM). Drugs were added to phenol red–free DMEM medium, supplemented with 10% FBS 1% penicillin/streptomycin. After 24 hours of drug incubation, cells were imaged using a confocal microscope (LSM 710, Zeiss) with a two-photon excitation at 700 nm (Chameleon Vision Laser, Coherent) and a 40×/1.2 water-immersion objective. Detection was performed in single-photon mode using an avalanche photodiode detector (ConfoCor 3). NAD(P)H signal intensity was quantified as the mean signal per cell using ImageJ and normalized to the cell area."}, "adult mouse DRG neurons": {"tested_on": "adult mouse DRG neurons", "assay": "Axonal degeneration index in dissociated adult mouse DRG neurons", "conditions": "72 h", "quoted_text": "After 4 days in vitro (DIV), at least 30% of medium was changed, and 10 μM AraC (cytosine β-D-arabino furanoside) was added to suppress nonneuronal growth. […] Neurons were fixed with 4% paraformaldehyde (PFA), washed with PBS, permeabilized with PBS–0.01% Triton X-100 for 15 min, and blocked with PBS–10% FBS for 1 hour before being stained overnight at 4°C with neurofilament antibody. Following PBS washes, secondary antibody (goat anti-chicken Alexa Fluor 488) was applied for 2 hours at room temperature (R.T.). Following additional PBS washes, coverslips were mounted with Fluoromount-G.\nImages of random fields of dissociated adult DRG neurons, immunostained with antineurofilament or anti-TUBB3 antibodies, were captured using a 20× objective lens (Olympus IX81) and a Sensicam QE monochrome camera (Cooke Corporation). Degeneration masks were generated on the basis of the method described by Gerdts et al. ([66]). Axonal degeneration was quantified by measuring the total axonal area and fragmented axonal area in the same field, using degeneration masks as shown in fig. […] Images were processed in Fiji using global autothresholding, binarization, and the particle analyzer module to detect fragments (20 to 10,000 pixels), as previously described ([17]). The degeneration index was calculated as the ratio of fragmented axonal area to total axonal area."}, "NAMPT": {"target": "NAMPT (Homo sapiens, UniProt P43490)", "sequence (P43490 whole entry, species assumed)": "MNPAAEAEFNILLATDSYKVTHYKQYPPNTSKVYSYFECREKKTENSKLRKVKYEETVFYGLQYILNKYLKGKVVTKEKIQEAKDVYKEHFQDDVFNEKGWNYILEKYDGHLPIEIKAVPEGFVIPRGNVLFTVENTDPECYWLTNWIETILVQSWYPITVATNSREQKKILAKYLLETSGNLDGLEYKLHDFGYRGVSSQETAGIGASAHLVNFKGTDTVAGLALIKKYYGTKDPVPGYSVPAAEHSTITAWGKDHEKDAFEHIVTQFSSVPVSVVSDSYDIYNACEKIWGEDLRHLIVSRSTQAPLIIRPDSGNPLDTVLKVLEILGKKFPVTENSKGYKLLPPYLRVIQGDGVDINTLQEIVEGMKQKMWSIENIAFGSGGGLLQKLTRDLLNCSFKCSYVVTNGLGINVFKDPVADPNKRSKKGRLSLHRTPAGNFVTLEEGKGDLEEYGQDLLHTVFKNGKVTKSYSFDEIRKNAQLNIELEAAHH", "assay": "AS-MS binding assay, NAMPT", "conditions": "10 μM compound, 3 μM NAMPT", "experimental": "(§1) To this end, Carba1 or FK866 (positive control of NAMPT binding) was first incubated with NAMPT or carbonic anhydrase (CA; negative control). Protein-ligand complexes were separated from the unbound compounds by size exclusion chromatography (SEC). To quantify the protein-bound fraction, the complexes were then dissociated using reverse-phase chromatography, and the compounds were analyzed and quantified by mass spectrometry.\n(§2) AS-MS was used to assess compound binding to NAMPT. AS-MS was performed by Edelris SAS (www.edelris.com/), which has developed the commercial AS-MS service “EDEN platform,” based on ([71]). Conditions consisted of protein (NAMPT and CA) at 3 μM and compounds (Carba1 and FK866) at 10 μM dissolved in corporate buffer."}, "carbonic anhydrase (CA)": {"tested_on": "carbonic anhydrase (CA)", "assay": "AS-MS binding assay, carbonic anhydrase (negative control)", "conditions": "10 μM compound, 3 μM carbonic anhydrase", "experimental": "as §1, with “spectrometry. By comparing the amounts of compound before (preSEC) and after (postSEC) SEC in the presence of CA or NAMPT, we assessed their ability to selectively bind to NAMPT.” for “spectrometry.”\nas §2"}, "HeLa cells [3]": {"tested_on": "HeLa cells", "assay": "HeLa cell viability (PrestoBlue) assay, 72 h", "assay_type": "cell-based, human", "experimental": "The human HeLa cell line was tested negative for mycoplasma contamination. HeLa cells were grown in RPMI 1640 medium supplemented with penicillin/streptomycin (100 μg/ml) and 10% FBS and maintained in a humidified incubator at 37°C and 5% CO2.\nCell viability was analyzed using the colorimetric PrestoBlue assay. Cells were seeded in 96-well microplates at a density of 7500 cells per well, allowed to adhere for 24 hours, and treated for 72 hours with either DMSO or drugs at indicated concentrations. PrestoBlue (10 μl) was then added to each well, followed by a 30-min incubation. Fluorescence was measured using a FLUOstar Optima microplate reader (excitation, 544 nm; emission, 580 nm; BMG Labtech)."}},
  "data": [
    {"smiles": "Cc1cc(-n2cccc2)c(C)c2c1[nH]c1ccc(Cl)cc12", "note": "[Compound 1]", "values": [
      {"measurement": "GTP levels", "setting": "HeLa cells [1]", "result": "significant increase"},
      {"measurement": "NAD+ abundance", "setting": "HeLa cells [1]", "result": "significant decrease"},
      {"measurement": "increase in NAD(P)H production", "setting": "HeLa cells [2]", "result": "about 30%"},
      {"measurement": "protection against PTX-induced axonal degeneration", "setting": "adult mouse DRG neurons; 12 μM Carba1 cotreatment with 50 nM PTX", "result": "prevented neuronal degeneration"},
      {"measurement": "protection against Bort-induced neuronal fragmentation", "setting": "adult mouse DRG neurons; 12 μM Carba1 cotreatment with 100 nM Bort", "result": "prevent neuronal fragmentation"},
      {"measurement": "protection against Cis-induced neuronal fragmentation", "setting": "adult mouse DRG neurons; 12 μM Carba1 cotreatment with 10 μM Cis", "result": "prevent neuronal fragmentation"},
      {"measurement": "axonal fragmentation / degeneration, agent alone", "setting": "adult mouse DRG neurons; DIV 12 neurons, Carba1 12 μM, PTX 50 nM, Cis 10 μM, Bort 100 nM", "result": "did not show significant effects on neurite fragmentation"},
      {"measurement": "binding to NAMPT (AS-MS)", "setting": "NAMPT", "result": "directly binds to NAMPT"},
      {"measurement": "binding to CA (AS-MS)", "setting": "carbonic anhydrase (CA)", "result": "neither FK866 nor Carba1 was found to bind CA"},
      {"measurement": "relief of FK866 cytotoxicity", "setting": "HeLa cells [3]; HeLa cells, coadministration with FK866", "result": "counteracted the toxic effect of FK866 in a dose-dependent manner"},
      {"measurement": "GI50", "setting": "HeLa cells [3]; Homo sapiens, HeLa, cell viability, compound alone, read-out: GI50", "result": "> 25", "unit": "µM"},
      {"measurement": "GI50 FK866 with carbazole/GI50 FK866", "setting": "HeLa cells [3]; ratio at the highest noncytotoxic dose of carbazole analog, readout of NAMPT activation", "result": 2.6},
      {"measurement": "GI50 PTX/GI50 PTX with carbazole", "setting": "HeLa cells [3]; ratio at the highest noncytotoxic dose of carbazole analog, synergy with PTX", "result": 2.5}
    ]}
  ]
}
